# Data: patent US8648050B2 (University of Mississippi, priority 2011, dated 2014)
# Entries after “also recorded” stand apart in the source; their conditions may differ. Where two headings read alike, the source gives them in different places.
# Legend:
# [1] = test system: Candida albicans; test: Antifungal susceptibility testing of HPLC fractions, NCCLS broth microdilution (Example 1); type: cell-based
# Protocol: Test Isolates: One Candida albicans isolate, American Type Culture Collection (ATCC) strain 90028, is selected.
# Antifungal Susceptibility Testing: Sample MIC's are determined by broth microdilution according to NCCLS guidelines. Isolates are subcultured twice on potato dextrose agar (PDA) plates (Remei, Lenexa, Kans., USA). Fungal suspensions are prepared by transferring four to five colonies into about 5 mL of sterile about 0.9% saline. […] 100 uL of inoculum is added to each well of a microtiter tray containing 100 uL of serially diluted drug in RPMI solution. Sample concentrations of about 0.0039, about 0.0078, about 0.0156, about 0.0312, about 0.0624, about 0.125, about 0.25, about 0.5, about 1, about 2, and about 4 ug/mL are achieved. The trays are incubated in a humid, dark chamber for about 48 hours at about 35° C. […] MIC determinations are performed a minimum of two times with an additional run if the quantity of sample drug allowed for it. It is decided to determine the MFC on samples which achieved definitive MICs. After the MIC is read at 48-h, a 1 uL sample is withdrawn from each microtiter tray with a 96 pin replicator (Boekel, Feasterville, Pa.) and plated onto an RPMI agar plate. Samples are incubated in a humid, dark chamber for about 48 hours at about 35° C. MFC is determined by the complete lack of organism growth on the plate and recorded as the corresponding well in the MIC tray.
# [2] = In vivo renal & hemodynamic assessment; parameters: species or system Sprague-Dawley rats
# From the text: In vivo renal & hemodynamic Assessment: Sprague-Dawley (Harlan Sprague Dawley) rats (224-249 g) were housed in a temperature-controlled room on a 12:12-h light-dark cycle and fed standard chow (Harlan Teklad; Madison, Wis.) and water ad libitum for a period of at least 1 week before surgical procedures and experimental treatment. All procedures and experimental designs were in accordance with the guidelines of the American Association for Accreditation of Laboratory Animal Care (AAALAC) and approved by the University of Mississippi Medical Center's Institutional Animal Care and Use Committee. Animals were anesthetized using isoflurane delivered by an anesthesia machine (Vaporizer for Forane Anesthetic: Ohio Medical Products, Madison, Wis.). A midline lower abdominal incision was made, and the bladder was cannulated with flare-tipped PE-90 tubing for urine collection. Catheters of heat-stretched PE-50 tubing were inserted into the left femoral artery and right femoral vein for blood sampling and blood pressure monitoring. After implantation, each catheter was filled with a 50:50 solution of heparin and saline and exteriorized at the back of the neck. All animals were instrumented with a specially made Silastic catheter and steel bladder as described by Gellai and Valtin for renal clearance measurements (5). On complete instrumentation, all animals were allowed to recover for a period of 4 days.
# Doses studied for assessment of renal toxicity range started at 1 mg/kg as a single dose infused at 0.015 mL/min over 1 hour. Incremental increases in dose were performed until 2 mg/kg was achieved. That dose was deemed to be nephrotoxic on the basis of a 16% reduction in mean glomerular filtration rate (GFR). […] In experimental studies, animals were treated with saline for up to 1 day and then placed in modified restraining cages for renal function measurements. Each animal served as their own control, prior to receiving AmB formulations. […] The femoral vein catheter was then connected to an infusion pump. Isotonic saline containing sodium [^125I]iothalamate and para-aminohippurate (PAH) was infused intravenously at a fixed rate of 3 mL/h After a 60-minute stabilization period, two 20-minute urine collections were obtained, followed by collection of blood samples. Urine volume was determined gravimetrically. Sodium and potassium concentrations in plasma and urine were measured by flame photometry. Glomerular filtration rate and effective renal plasma flow were calculated from the radioactivity of ^125I and concentration of PAH, respectively, in plasma and urine. PAH concentration was determined colorimetrically. Arterial pressure was monitored in conscious animals with a pressure transducer connected to a Grass model 7B chart recorder for continuous recording. […]
# [3] = published, cited from earlier work
# [4] = in vivo; details: Balb/c, mouse
# [5] = test system: C. albicans ATCC 44858; test: Murine Candida albicans systemic infection model (survival, tissue burden); type: in vivo, Balb/c mice
# Protocol: Survival in an Infection Model: Evaluation of efficacy was performed in a murine Candida albicans systemic infection model. For each experiment, an isolate of C. albicans ATCC 44858 was thawed and then incubated overnight on Sabouraud dextrose agar (Unipath Limited). One colony was transferred into 25 mL of Sabouraud dextrose broth (Unipath Limited). The broth was incubated on an orbital mixer for 8 hours at 37° C., centrifuged to pellet the organisms, and then washed and resuspended in saline. Density was adjusted using optical density at 490 nm. Initial studies were performed in which 0.15-0.2 mL saline containing this Candida strain over a range of densities was injected intravenously to determine the optimum inoculum. The 90% lethal dose (LD90) was defined as the inoculum of the organism that caused 90% mortality 10 days post-infection. The inocula for the all isolates are estimated at 3-5×10^8 CFU/mL. These inocula were used in this study.
# Specific-pathogen-free Balb/c mice (age 12-20 weeks) were obtained from IFFA Credo (L'Arbresle, France). Female mice were infected with 0.15-0.2 mL of C. albicans inoculum (4×10^8 CFU/mL) by injection into the lateral tail vein and then returned to their home cages. Post-infection viability counts were performed to ensure the correct inoculum had been given. […] At time of death or animal sacrifice, vital organs (liver, spleen, heart, bladder, muscle) were isolated and transferred into 2 mL cold sterile phosphate-buffered saline. Samples were frozen at −80° C. until analysis. At batch processing time, each sample was thawed and weighed. The organs were divided into 2 batches. Organs in one batch were homogenized in a tissue grinder for 14-30 seconds and then diluted 1:10, 1:100, and 1:1000. A 100 μL aliquot of each sample was plated on Sabourauds dextrous agar and incubated at 37° in a humidified incubator. Plates were examined daily for 7 days, and colony counts were recorded from all plates each day. The second batch of organ tissue was evaluated microscopically. Leukopenia was not induced by intraperitoneal administration of cyclophosphamide at 100 mg/kg 4 days before C. albicans inoculation due to the overall success of the model and the desire to maintain competency of the immune system.
# Statistical Analysis: Animal survival between treated and untreated infected animals was selected as the primary outcome measure.
# [6] = Stability of AmBHP to pH and temperature during work up; type: physicochemical
# From the text: As a point in fact, AmBHP can be obtained with elution in ethanol containing 1% 1 N HCL (0.01 N HCl in water has a pH ˜2) if the pH during post-column work up is maintained between 5-7. Nor is the apparent purity of AmBHP adversely affected by a short exposure to pH ˜11, as occurs during solubilization with deoxycholate. However, at both extremes, AmBHP may degrade during evaporation of solvent under air/nitrogen or during lyophilization. […] During evaporation of solvent, the temperature of the heating block remained at about 40° C. or less. The presence of DMSO or DMF during drying/lyophilization or prolonged storage (even at −20° C.) may result in degradation.
# [7] = test system: THP-1 cells
# [8] = test system: IL-1β expression by THP-1 cells; test: In vitro infusion related reaction assay (IL-1β release, ELISA); details: FIG. 3 or 9
# Protocol: Cells are then incubated for about 2 hours. Supernatants are collected from each well after three freeze-thaws and stored at about −70° C. until assay. Samples are assayed for IL-1β using an enzyme-linked immunosorbent assay (Cistron Biotechnology; Pine Brook, N.J.) (ELISA). The procedure involves a four-step test carried out in microtiter wells which are coated with IL-1β specific monoclonal antibody. […] There is no cross-reactivity for IL-1α, IL-2, TNF-α or interferon. […] Data are the mean of duplicate assays and are expressed in pg/mL on the basis of standards supplied by the manufacturer.
# Supernatants were collected from each well after three freeze-thaws cycles and stored at −80° C. until assayed. Samples were assayed for interleukin-1β (IL-1β) using an enzyme-linked immunosorbent assay (Cistron Biotechnology; Pine Brook, N.J.).
smiles,measurement,setting,value
"CC1/C=C/C=C/C=C/C=C/C=C/C=C/C=C/C(OC2OC(C)C(O)C(N)C2O)CC2OC(O)(CC(O)CC(O)C(O)CCC(O)CC(O)CC(=O)OC(C)C(C)C1O)CC(O)C2C(=O)O (stereo not drawn) [AmB, Amphotericin B]",MIC,"[1]; 100% inhibition vs control, 48 hours at 35° C., Candida albicans B311 (footnote 1), read-out: Median MIC100",0.25 µg/mL
same,MIC80,"[1]; Candida albicans, 48 h, read-out: Median MIC80",0.1 µg/mL
same,MFC,"[1]; Candida albicans, ATCC90028, fungicidal to all cells, no growth on agar plates, footnotes 1,2: C. albicans B311, ATCC 90028",0.625 µg/mL
same,mean GFR,"[2]; rats, 2 mg/kg over one hour",1.92 mL/min
same,"LD50, average parenteral dose","[3]; OF-1, CD-1 and Balb/c mice",2.78 mg/kg
same,"LD50, range","[3]; OF-1, CD-1 and Balb/c mice",2.3 to 3.46 mg/kg
same,LD50,[3]; fasting mice,1.51 mg/kg
same,LD50,[3]; fed animals,2.38 mg/kg
same,LD50,[4],~2.5 mg/kg
"CC1/C=C/C=C/C=C/C=C/C=C/C=C/C=C/C(OC2OC(C)C(O)C(N)C2O)CC2OC(O)(CC(O)CC(O)C(O)CCC(O)CC(O)CC(=O)OC(C)C(C)C1O)CC(O)C2C(=O)O (stereo not drawn) [AmBHP, Amphotericin B Highly Purified]",other indices of cardio-renal function,[2]; doses 10-fold outside the range of toxicity for AmB,not adversely affected
same,mean GFR,"[2]; rats, 20 mg/kg over one hour",2.03 mL/min
same,"renal function (GFR), decrease as percent control","[2]; rats, 20 mg/kg over one hour",7.9%
same,mortality in infected mice,"[5]; 0.5 mg/kg, 5 days post infection",20%
same,activity against fungi in blood,[5]; blood,as effective against blood-borne fungi as was Pharma-Tek AmB
same,colony counts from lungs and livers,[5]; compared to AmB,lower colony counts
same,"C. albicans tissue burden, efficacy","[5]; post-mortem liver, spleen, heart, kidney, lung and blood",comparable to those of Pharma-Tek® AmB and AmBLC
same,stability on exposure to variations in pH,"[6]; pH between ˜2 and ˜11, short-term",does not appear to adversely affect AmB
same,stability to temperature,[6]; post-column work up,may degrade at high temperature
same,toxicity by ability of THP-1 cells to exclude trypan blue,[7],less disruptive to the cell membrane than is commercial deoxycholate-formulated AmB
same,"general toxicity in vivo (apparent LD50 and survival of Candida-infected mice), less than generic or lipid-complexed AmB",,roughly 2 fold
same,"cytokine (IL-1β) response, comparison in words",[8],Less cytokine is expressed; also recorded: less of a cytokine response than did AmB; also recorded: failed to further increase cytokine release at concentrations as high as 21.6 μM
